# Measurements: article PMC8602566 (Frontiers in Oncology, 2021)
# System: acetylated histone H3 in U87 cells
# Test: Western blot analysis for H3-histone acetylation
# Format: cell-based, Human
# Procedure: U87 cells (5 × 10^5 cells/ml) in six-well plates were incubated with DMC-HA and lysed in radioimmunoprecipitation assay (RIPA) buffer containing protease and phosphatase inhibitors. Protein contents in the lysates were determined by Bradford’s assay, and 50 μg was separated by SDS polyacrylamide gel electrophoresis (SDS-PAGE) electrophoresis. Proteins were transferred to membranes and probed with human anti-acetylated H3 and anti-β actin antibodies as a loading control. Membranes were then labeled with the appropriate horseradish peroxidase (HRP)-conjugated immunoglobulin G (IgG), and protein bands were visualized using enhanced chemiluminescence. (Bio-Rad, Hercules, CA, USA).
# Next, DMC-HA-induced acetylation of histone H3 in living cells was analyzed using Western blot method.
compound,measurement,setting,value
COc1cc(/C=C/C(=O)CC(=O)/C=C/c2ccc(/C=C/C(=O)NO)cc2)ccc1O [DMC-HA],"acetylation of histone H3, time dependence","5 μM, different times",increased in a time-dependent manner
same,"acetylation of histone H3, dose dependence","various concentrations, 24 h",dose dependently increased the acetylation of histone H3
